Assay results from patent US20110263574A1, “PIRENZEPINE AS OTOPROTECTIVE AGENT” (PROTEOSYS AG, priority 2009, published 2011).
“Also recorded” adds a separate entry of the source.

Legend:
Inner hair cells (IHC) = assay: Otoprotection in cultivated cochlea, cis-platin induced loss of inner hair cells; type: cell-based; conditions: cultivated cochlea of post-natal mice; cis-platin 5 μM; test compound 0.1 to 100 μM; compared to controls
Experimental: (§1) In cultivated cochlea, a loss of sensory or hair cells was induced by administering cis-platin (5 μM).
(§2) Intact cochlea of post-natal mice were cultivated up to 7 days (Unsworth and Lelkes, Nat. Med. 4 (1998), 901-907) in simulated microgravity.
(§3) The otic protectivity of the test compounds PSY 310 and PSY 3101 in the presence of ototoxic agents was tested. Neomycin (an aminoglycoside antibiotic) and cis-platinum (a chemotherapeutic agent) were added in three different concentrations to the cultivate organ over a time period of 48 hours.
(§4) The test compounds were added in six different amounts of 0.1 to 100 μM respectively.

Outer hair cells (OHC) = assay: Otoprotection in cultivated cochlea, cis-platin induced loss of outer hair cells; type: cell-based; conditions: cultivated cochlea of post-natal mice; cis-platin 5 μM; test compound 0.1 to 100 μM; compared to controls
Experimental: as §1, §2, §3, §4

[1] = tested on: germ cell tumor cell line 2101 Ep; assay: Survival rate of cis-platin treated cancer cell line 2101 Ep with simultaneous test compound; type: cell-based; conditions: 2101 Ep cells; cis-platin 1.4 μM; 10 μM test compound simultaneously; control DMSO 0.1%
[2] = tested on: germ cell tumor cell line NT2; assay: Survival rate of cis-platin treated cancer cell line NT2 with simultaneous test compound; type: cell-based; conditions: cis-platin 1.4 μM, 10 μM test compound simultaneously, control DMSO 0.1%
PARP-1 = conditions: induced by transient ischemia or acoustic trauma; Tabuchi et al.; cited from earlier work

| SMILES | preserved fraction of inner hair cells (hair cell protection) (Inner hair cells (IHC)) | preserved fraction of outer hair cells (hair cell protection) (Outer hair cells (OHC)) | effect on cytotoxic effect of cis-platinum (survival rate of cancer cells) [1] | effect on cytotoxic effect of cis-platinum (survival rate of cancer cells) [2] | effect on cochleal dysfunctions (PARP-1) |
| --- | --- | --- | --- | --- | --- |
| CN1CCN(CC(=O)N2c3ccccc3C(=O)Nc3cccnc32)CC1 [pirenzepine] | dosis dependent protection; also recorded: dose-dependent increase | dosis dependent protection; also recorded: dose-dependent increase | does not reduce | does not reduce |  |
| NC(=O)c1cccc(N)c1 [3-aminobenzamide] |  |  |  |  | alleviates |
